pIC50: −log10 of the molar value.
System: MDA-MB-231 multicell spheroids, viability
Experiment: Anticancer human tumor MDA-MB-231 cell line growth inhibition [PI3K];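 also: spheroids exposed to agents for seven days before reading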;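 as to viability, T/C: percent of vehicle control luminescence with DMSO treated spheroids as 100%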
Settings: for pIC50: curve of first compound; for viability, T/C: stronger effect = lower value; active = viability on the fitted dose curve at most 10% of control; inactive = the rest
Summary of the method: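 Tumor cells grown as multi-cell spheroids with HUVEC endothelial cells and MSC fibroblast-like stroma were treated with targeted agents combined with inavolisib, alpelisib, duvelisib or copanlisib. Doses fell in half-log steps from near clinical Cmax, else from 10 microM. Viability was measured.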

[1] = second compound 0.0316 µM, first compound 0.000316 µM
[2] = second compound 0.0316 µM, first compound 0.001 µM
[3] = second compound 0.0316 µM, first compound 0.00316 µM
[4] = second compound 0.0316 µM, first compound 0.01 µM
[5] = second compound 0.0316 µM, first compound 0.0316 µM
[6] = second compound 0.0316 µM, first compound 0.1 µM
[7] = second compound 0.1 µM, first compound 0.000316 µM
[8] = second compound 0.1 µM, first compound 0.001 µM
[9] = second compound 0.1 µM, first compound 0.00316 µM
[10] = second compound 0.1 µM, first compound 0.01 µM
[11] = second compound 0.1 µM, first compound 0.0316 µM
[12] = second compound 0.1 µM, first compound 0.1 µM
[13] = second compound 0.316 µM, first compound 0.000316 µM
[14] = second compound 0.316 µM, first compound 0.001 µM
[15] = second compound 0.316 µM, first compound 0.00316 µM
[16] = second compound 0.316 µM, first compound 0.01 µM
[17] = second compound 0.316 µM, first compound 0.0316 µM
[18] = second compound 0.316 µM, first compound 0.1 µM
[19] = second compound 1 µM, first compound 0.000316 µM
[20] = second compound 1 µM, first compound 0.001 µM
[21] = second compound 1 µM, first compound 0.00316 µM
[22] = second compound 1 µM, first compound 0.01 µM
[23] = second compound 1 µM, first compound 0.0316 µM
[24] = second compound 1 µM, first compound 0.1 µM
[25] = second compound 3.16 µM, first compound 0.000316 µM
[26] = second compound 3.16 µM, first compound 0.001 µM
[27] = second compound 3.16 µM, first compound 0.00316 µM
[28] = second compound 3.16 µM, first compound 0.01 µM
[29] = second compound 3.16 µM, first compound 0.0316 µM
[30] = second compound 3.16 µM, first compound 0.1 µM
[31] = second compound 10 µM, first compound 0.000316 µM
[32] = second compound 10 µM, first compound 0.001 µM
[33] = second compound 10 µM, first compound 0.00316 µM
[34] = second compound 10 µM, first compound 0.01 µM
[35] = second compound 10 µM, first compound 0.0316 µM
[36] = second compound 10 µM, first compound 0.1 µM

CC(=O)c1c(C)c2cnc(Nc3ccc(N4CCNCC4)cn3)nc2n(C2CCCC2)c1=O + CC(Nc1ncnc2nc[nH]c12)c1cc2cccc(Cl)c2c(=O)n1-c1ccccc1
7.12: pIC50 (second compound 0.316 µM)
7.06: pIC50 (second compound 0.1 µM)
7.44: pIC50 (second compound 1 µM)
> 9.50: pIC50 (second compound 10 µM)
inactive: viability, T/C [1] 96.8% | viability, T/C [2] 107% | viability, T/C [3] 92.6% | viability, T/C [4] 90.6% | viability, T/C [5] 72.8% | viability, T/C [6] 53.2% | viability, T/C [7] 98.8% | viability, T/C [8] 99.6% | viability, T/C [9] 96.1% | viability, T/C [10] 80.5% | viability, T/C [11] 71.3% | viability, T/C [12] 46.5% | viability, T/C [13] 86.8% | viability, T/C [14] 90% | viability, T/C [15] 92.6% | viability, T/C [16] 83.5% | viability, T/C [17] 66.6% | viability, T/C [18] 44.6% | viability, T/C [19] 79.2% | viability, T/C [20] 79.9% | viability, T/C [21] 78.4% | viability, T/C [22] 65.1% | viability, T/C [23] 52.9% | viability, T/C [24] 36% | viability, T/C [25] 62.5% | viability, T/C [26] 60.1% | viability, T/C [27] 55.3% | viability, T/C [28] 51.1% | viability, T/C [29] 43.1% | viability, T/C [30] 29.6% | viability, T/C [31] 42.6% | viability, T/C [32] 47.5% | viability, T/C [33] 41.2% | viability, T/C [34] 38% | viability, T/C [35] 36.1% | viability, T/C [36] 19%
< 7.00: pIC50 (second compound 0.0316 µM)
7.94: pIC50 (second compound 3.16 µM)

CC(C)n1nc(-c2ccc3oc(N)nc3c2)c2c(N)ncnc21 + CC(Nc1ncnc2nc[nH]c12)c1cc2cccc(Cl)c2c(=O)n1-c1ccccc1
7.19: pIC50 (second compound 0.0316 µM)
7.28: pIC50 (second compound 0.316 µM)
inactive: viability, T/C [1] 94.1% | viability, T/C [2] 101% | viability, T/C [3] 93.1% | viability, T/C [4] 85.6% | viability, T/C [5] 65.5% | viability, T/C [6] 40.5% | viability, T/C [7] 101% | viability, T/C [8] 100% | viability, T/C [9] 91.9% | viability, T/C [10] 79.7% | viability, T/C [11] 66.2% | viability, T/C [12] 41% | viability, T/C [13] 91.7% | viability, T/C [14] 90.2% | viability, T/C [15] 87.2% | viability, T/C [16] 72.8% | viability, T/C [17] 58.8% | viability, T/C [18] 39.4% | viability, T/C [19] 80.5% | viability, T/C [20] 78% | viability, T/C [21] 76.1% | viability, T/C [22] 68.5% | viability, T/C [23] 50% | viability, T/C [24] 39.2% | viability, T/C [25] 62.1% | viability, T/C [26] 64.9% | viability, T/C [27] 57.8% | viability, T/C [28] 50.8% | viability, T/C [29] 43.4% | viability, T/C [30] 31.8% | viability, T/C [31] 49.2% | viability, T/C [32] 44.6% | viability, T/C [33] 42.4% | viability, T/C [34] 35.9% | viability, T/C [35] 30.1% | viability, T/C [36] 24.2%
> 9.50: pIC50 (second compound 10 µM)
7.90: pIC50 (second compound 3.16 µM)
7.49: pIC50 (second compound 1 µM)
7.18: pIC50 (second compound 0.1 µM)

CCCS(=O)(=O)Nc1ccc(F)c(C(=O)c2c[nH]c3ncc(-c4ccc(Cl)cc4)cc23)c1F + CC(Nc1ncnc2nc[nH]c12)c1cc2cccc(Cl)c2c(=O)n1-c1ccccc1
5.71: pIC50 (second compound 3.16 µM)
6.43: pIC50 (second compound 10 µM)
inactive: viability, T/C [5] 114% | viability, T/C [6] 109% | viability, T/C (second compound 0.0316 µM, first compound 0.316 µM) 102% | viability, T/C (second compound 0.0316 µM, first compound 1 µM) 89.8% | viability, T/C (second compound 0.0316 µM, first compound 3.16 µM) 66.8% | viability, T/C (second compound 0.0316 µM, first compound 10 µM) 32.7% | viability, T/C [11] 113% | viability, T/C [12] 108% | viability, T/C (second compound 0.1 µM, first compound 0.316 µM) 96.5% | viability, T/C (second compound 0.1 µM, first compound 1 µM) 82.8% | viability, T/C (second compound 0.1 µM, first compound 3.16 µM) 61.2% | viability, T/C (second compound 0.1 µM, first compound 10 µM) 34.5% | viability, T/C [17] 85.8% | viability, T/C [18] 95.3% | viability, T/C (second compound 0.316 µM, first compound 0.316 µM) 99.2% | viability, T/C (second compound 0.316 µM, first compound 1 µM) 79.4% | viability, T/C (second compound 0.316 µM, first compound 3.16 µM) 60.1% | viability, T/C (second compound 0.316 µM, first compound 10 µM) 32.3% | viability, T/C [23] 95.5% | viability, T/C [24] 82.9% | viability, T/C (second compound 1 µM, first compound 0.316 µM) 77.4% | viability, T/C (second compound 1 µM, first compound 1 µM) 71.9% | viability, T/C (second compound 1 µM, first compound 3.16 µM) 54.4% | viability, T/C (second compound 1 µM, first compound 10 µM) 30.5% | viability, T/C [29] 68.4% | viability, T/C [30] 70.9% | viability, T/C (second compound 3.16 µM, first compound 0.316 µM) 67.2% | viability, T/C (second compound 3.16 µM, first compound 1 µM) 56.5% | viability, T/C (second compound 3.16 µM, first compound 3.16 µM) 44.6% | viability, T/C (second compound 3.16 µM, first compound 10 µM) 26.4% | viability, T/C [35] 52.8% | viability, T/C [36] 55% | viability, T/C (second compound 10 µM, first compound 0.316 µM) 52.1% | viability, T/C (second compound 10 µM, first compound 1 µM) 43.3% | viability, T/C (second compound 10 µM, first compound 3.16 µM) 37.7% | viability, T/C (second compound 10 µM, first compound 10 µM) 23%
5.25: pIC50 (second compound 0.0316 µM)
5.42: pIC50 (second compound 1 µM)
5.33: pIC50 (second compound 0.316 µM)
5.29: pIC50 (second compound 0.1 µM)
